Laboratory results taken from patent EP4114474B1, “HEMOSTATIC AGENT” (Industria Farmaceutica Nova Argentia S.r.l., priority 2020, dated 2021).

Columns and labels:
NIH3T3L6 fibroblasts = test: In vitro cytotoxicity, trypan blue cell viability; format: cell-based, murine
Method: The cytotoxic effect was assessed in vitro thanks to the use of murine fibroblasts (NIH3T3L6 fibroblasts from Leibniz-Institute DSMZ-Deutsche Sammlung von Mikroorganismen und Zellkulturen GmbH; Brunswick, Germany) and, once the cells were propagated, we prepared the following experimental groups: • control (NIH3T3L6 cells without any treatment); • iron chloride 5% ([…]); • iron ammonium citrate 5.3% + Rock alum 1.7% ([…] 5.3% + Rock alum 1.7%); • iron ammonium citrate 5.3% ([…] 5.3%); • Rock alum 1.7% ([…]).
The in vitro cytotoxicity analysis thanks to the evaluation of the trypan blue allowed us to obtain the percentage of viable cells in each experimental group.

[1] = Coagulation tests with combinations of ferric and ferrous salts and other potentially coagulating salts (Example 2); conditions: CONC. TEST 5.00% by weight
Method: Before reaching the formula object of the invention various other combinations of ferric and ferrous Salts with other potentially coagulating Salts were tested. Below are briefly reported the combinations of Salts tested and the results obtained also in comparison with Ferric Chloride.

In the case of `O.O.O.O.O.O.[Cl-].[Cl-].[Cl-].[Fe+3]` [Ferric Chloride (FeCl3 · 6H2O)], the “cytotoxic effect (cell death, percentage of viable cells by trypan blue)” value (NIH3T3L6 fibroblasts; NIH3T3L6 cells incubated 30" with 100µL) is reported as “significant cell death”, the cell death (NIH3T3L6 fibroblasts; incubation of murine fibroblasts for a time greater than 45"-50") is reported as “complete cell death” and the “RESULTS (coagulation)” value [1] is reported as “coagulates”.
